Where two headings read alike, the source gives them in different places.
Key:
MDA-MB-436 cells = experiment: Proliferation assay MDA-MB-436, negative control cell line (Alamar Blue, 144 h); format: cell-based; conditions: arithmetic mean
Summary of the method: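 Viability read as Alamar Blue fluorescence (590 nm, 2 h) after 144 h compound exposure at 37 °C, 5% CO2. Cells seeded at 3000 per well in 2.5% FBS DMEM/Ham's F12, dosed a day later over 2.0×10E-9–2.0×10E-5 M in 9 steps with 0.2% DMSO, in triplicate.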

[1] = target: Recombinant human His-tagged Kat6a protein (amino acids 194-810) (Homo sapiens (Human), UniProt Q92794); experiment: Kat6a activity assay (TR-FRET, acetylation of biotinylated Histone-H4-derived peptide); format: biochemical; conditions: 60 mins at 22° C., read-out: KAT6A-DPF/HAT domain IC50 [mol/l] (arithmetic mean)
Summary of the method: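 TR-FRET read-out of H4 K8 acetylation, using anti-acetyl-K8 antibody and streptavidin acceptor, after anacardic acid stop; IC50 from four-parameter regression normalized to DMSO. Reaction: recombinant human Kat6a aa 194-810 (insect-cell derived), 220 nM H4 1-24 peptide, 600 nM acetyl-CoA, pH 8, 22 °C, 60 min, compounds 0.01-20 μM.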

[2] = tested on: ESR1 transcription (luciferase signal in MVLN cells); experiment: Repression of ESR1 transcription, luciferase reporter in MVLN cells; format: cell-based; conditions: inhibition of luciferase signal in MVLN cells, arithmetic mean
Summary of the method: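 Luminescence from an ER-driven Vitellogenin A2 element–luciferase reporter was measured after 24 h of treatment of MVLN cells, in duplicate wells. Alamar Blue (2 h, 530/590 nm) served as a cell-density control.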

ZR-75-1 cells = experiment: Proliferation assay ZR-75-1 (Alamar Blue, 144 h); format: cell-based; conditions: arithmetic mean, read-out: ZR75-1 proliferation assay, EC50 [M] (arithmetic mean)
Summary of the method: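 Alamar Blue fluorescence (590 nm, 2 h reagent step) measured viability after 144 h compound exposure at 37 °C, 5% CO2. Compounds spanned 2.0×10E-5 to 2.0×10E-9 M in 9 dilutions at 0.2% DMSO, in triplicate, added 24 h after plating 3000 cells/well in RPMI 1640 plus 2.5% FBS.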

[3] = target: Recombinant human GST-tagged Kat6b protein (431-end); experiment: Kat6b activity assay (TR-FRET, acetylation of biotinylated Histone-H4-derived peptide); format: biochemical; conditions: 30 mins at 22° C., read-out: KAT6B activity assay IC50 [mol/l] (arithmetic mean)
Protocol: Kat6b inhibitory activities of the compounds described in the present invention were quantified using a Fluorescence Resonance Energy Transfer (TR-FRET) assay which measures acetylation of a synthetic, biotinylated Histone-H4-derived peptide by the enzyme.
In this case 50 nl DMSO were used instead of compounds. […] IC50 values were determined by regression analysis based on a 4 parameter equation (minimum, maximum, ICM, Hill; Y=Max+(Min−Max)/(1+(X/ICso) Hill) using the Screener Software (Genedata).

[4] = Homo sapiens, MDA-MB-436, 144 h

Sequence of Recombinant human His-tagged Kat6a protein (amino acids 194-810) (Q92794 194-810): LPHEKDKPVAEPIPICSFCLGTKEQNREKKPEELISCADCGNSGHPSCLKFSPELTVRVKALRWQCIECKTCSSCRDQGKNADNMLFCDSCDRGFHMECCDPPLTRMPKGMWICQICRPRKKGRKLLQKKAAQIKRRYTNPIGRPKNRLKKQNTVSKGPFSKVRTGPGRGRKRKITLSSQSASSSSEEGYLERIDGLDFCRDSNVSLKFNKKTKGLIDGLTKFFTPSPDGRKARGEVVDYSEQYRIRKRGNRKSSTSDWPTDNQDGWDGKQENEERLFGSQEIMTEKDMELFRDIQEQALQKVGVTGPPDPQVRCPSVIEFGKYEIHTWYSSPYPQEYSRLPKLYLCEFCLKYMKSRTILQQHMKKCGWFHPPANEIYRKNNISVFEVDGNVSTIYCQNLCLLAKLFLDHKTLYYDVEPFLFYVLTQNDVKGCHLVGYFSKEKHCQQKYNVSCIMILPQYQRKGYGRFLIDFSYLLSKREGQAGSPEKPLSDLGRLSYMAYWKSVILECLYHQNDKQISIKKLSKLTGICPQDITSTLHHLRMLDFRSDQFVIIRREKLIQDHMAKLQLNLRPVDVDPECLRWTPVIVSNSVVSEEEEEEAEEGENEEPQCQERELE

CCN(C)c1ccc2cc(C(=O)NS(=O)(=O)c3ccccc3-c3ccccc3)oc2c1 [Example 1, 6-[Ethyl(methyl)amino]-N-(2-phenylphenyl)sulfonyl-benzofuran-2-carboxamide]
EC50 (MDA-MB-436 cells; [4]): > 20000 nM | IC50 [1]: 599 nM | IC50 ([2]; Homo sapiens, MVLN): 1840 nM | EC50 (ZR-75-1 cells; Homo sapiens, ZR-75-1, 144 h): 8.93e-07 M | IC50 [3]: 836 nM

CCN(C)c1ccc2cc(C(=O)NS(=O)(=O)c3ccccc3)oc2c1 [Example 2, N-(Benzenesulfonyl)-6-[ethyl(methyl)amino]benzofuran-2-carboxamide]
EC50 (MDA-MB-436 cells; [4]): > 20000 nM | IC50 [1]: 4800 nM | IC50 ([2]; Homo sapiens, MVLN): 3500 nM | EC50 (ZR-75-1 cells; Homo sapiens, ZR-75-1, 144 h): 1.08e-05 M | IC50 [3]: 5700 nM

CCN(C)c1ccc2cc(C(=O)NS(=O)(=O)c3ccccc3Cl)oc2c1 [Example 4, N-(2-Chlorophenyl)sulfonyl-6-[ethyl(methyl)amino]benzofuran-2-carboxamide]
EC50 (MDA-MB-436 cells; [4]): > 20000 nM | IC50 [1]: 2700 nM | IC50 ([2]; Homo sapiens, MVLN): 2570 nM | EC50 (ZR-75-1 cells; Homo sapiens, ZR-75-1, 144 h): 3.25e-06 M | IC50 [3]: 1410 nM

CCOc1ccccc1S(=O)(=O)NC(=O)c1cc2ccc(N(C)CC)cc2o1 [Example 5, N-(2-Ethoxyphenyl)sulfonyl-6-[ethyl(methyl)amino]benzofuran-2-carboxamide]
EC50 (MDA-MB-436 cells; [4]): > 20000 nM | IC50 [1]: 1100 nM | IC50 ([2]; Homo sapiens, MVLN): 520 nM | EC50 (ZR-75-1 cells; Homo sapiens, ZR-75-1, 144 h): 8.76e-07 M | IC50 [3]: 495 nM

CN(c1ccccc1)c1ccc2cc(C(=O)NS(=O)(=O)c3ccccc3-c3ccccc3)oc2c1 [Example 10, 6-(N-Methylanilino)-N-(2-phenylphenyl)sulfonyl-benzofuran-2-carboxamide]
IC50 [1]: 900 nM | IC50 ([2]; Homo sapiens, MVLN): 13600 nM | IC50 [3]: 1490 nM

CN(C)c1cc(F)c2cc(C(=O)NS(=O)(=O)c3ccccc3-c3ccccc3)oc2c1 [Example 12, N-([1,1′-Biphenyl]-2-sulfonyl)-6-(dimethylamino)-4-fluoro-1-benzofuran-2-carboxamide]
IC50 [1]: 13.3 nM | IC50 ([2]; Homo sapiens, MVLN): 61.7 nM | EC50 (ZR-75-1 cells; Homo sapiens, ZR-75-1, 144 h): 5.72e-08 M | IC50 [3]: 18.2 nM

CN(C)c1ccc2cc(C(=O)NS(=O)(=O)c3ccc(-c4ccccc4)cc3)oc2c1 [Example 15, N-([1,1′-biphenyl]-4-sulfonyl)-6-(dimethylamino)-1-benzofuran-2-carboxamide]
IC50 [1]: 112 nM | IC50 ([2]; Homo sapiens, MVLN): 5000 nM | EC50 (ZR-75-1 cells; Homo sapiens, ZR-75-1, 144 h): 4.28e-06 M | IC50 [3]: 235 nM

CN(C)c1ccc2cc(C(=O)NS(=O)(=O)c3cccc4c3OCC4)oc2c1 [Example 30, N-(2,3-Dihydro-1-benzofuran-7-sulfonyl)-6-(dimethylamino)-1-benzofuran-2-carboxamide]
IC50 [1]: 137 nM | IC50 ([2]; Homo sapiens, MVLN): > 20000 nM | IC50 [3]: 497 nM

CN(C)c1ccc2cc(C(=O)NS(=O)(=O)c3ccccc3OC(F)(F)F)oc2c1 [Example 31, 6-(Dimethylamino)-N-[2-(trifluoromethoxy)benzene-1-sulfonyl]-1-benzofuran-2-carboxamide]
EC50 (MDA-MB-436 cells; [4]): > 20000 nM | IC50 [1]: 53 nM | EC50 (ZR-75-1 cells; Homo sapiens, ZR-75-1, 144 h): 8.14e-08 M | IC50 [3]: 59.1 nM

Cc1ccccc1S(=O)(=O)NC(=O)c1cc2ccc(N(C)C)cc2o1 [Example 32, 6-(Dimethylamino)-N-(2-methylbenzene-1-sulfonyl)-1-benzofuran-2-carboxamide]
EC50 (MDA-MB-436 cells; [4]): > 20000 nM | IC50 [1]: 224 nM | EC50 (ZR-75-1 cells; Homo sapiens, ZR-75-1, 144 h): 3.78e-07 M | IC50 [3]: 423 nM

CN(C)c1ccc2cc(C(=O)NS(=O)(=O)c3ccccc3C#N)oc2c1 [Example 33, N-(2-Cyanobenzene-1-sulfonyl)-6-(dimethylamino)-1-benzofuran-2-carboxamide]
EC50 (MDA-MB-436 cells; [4]): > 20000 nM | IC50 [1]: 2720 nM | EC50 (ZR-75-1 cells; Homo sapiens, ZR-75-1, 144 h): 6.26e-06 M | IC50 [3]: > 20000 nM

CN(C)c1ccc2cc(C(=O)NS(=O)(=O)c3ccccc3F)oc2c1 [Example 34, 6-(Dimethylamino)-N-(2-fluorobenzene-1-sulfonyl)-1-benzofuran-2-carboxamide]
EC50 (MDA-MB-436 cells; [4]): > 20000 nM | IC50 [1]: 417 nM | EC50 (ZR-75-1 cells; Homo sapiens, ZR-75-1, 144 h): 5.78e-07 M | IC50 [3]: 504 nM

CN(C)c1ccc2cc(C(=O)NS(=O)(=O)c3ccccc3-c3ccccc3)sc2c1 [Example 48, N-([1,1′-Biphenyl]-2-sulfonyl)-6-(dimethylamino)-1-benzothiophene-2-carboxamide]
EC50 (MDA-MB-436 cells; [4]): > 20000 nM | IC50 [1]: 310 nM | IC50 ([2]; Homo sapiens, MVLN): 785 nM | IC50 [3]: 450 nM

Cc1cc(Cl)c2cccc(S(=O)(=O)NC(=O)c3cc4ccc(N(C)C)cc4o3)c2n1 [Example 83, N-(4-Chloro-2-methylquinoline-8-sulfonyl)-6-(dimethylamino)-1-benzofuran-2-carboxamide]
IC50 [1]: 48.8 nM | IC50 ([2]; Homo sapiens, MVLN): 209 nM | EC50 (ZR-75-1 cells; Homo sapiens, ZR-75-1, 144 h): 1.13e-06 M | IC50 [3]: 55.4 nM

COc1cc(C)ccc1S(=O)(=O)NC(=O)c1cc2ccc(N(C)C)cc2o1 [Example 127, 6-(Dimethylamino)-N-(2-methoxy-4-methylbenzene-1-sulfonyl)-1-benzofuran-2-carboxamide]
EC50 (MDA-MB-436 cells; [4]): > 20000 nM | IC50 [1]: 71.2 nM | IC50 ([2]; Homo sapiens, MVLN): 62.5 nM | IC50 [3]: 56.2 nM

CC(C)c1ccc(OCC2CC2)c(S(=O)(=O)NC(=O)c2cc3ccc(N(C)C)cc3o2)c1 [Example 177, N-[2-(cyclopropylmethoxy)-5-isopropyl-phenyl]sulfonyl-6-(dimethylamino)benzofuran-2-carboxamide]
IC50 [1]: 7.91 nM | IC50 ([2]; Homo sapiens, MVLN): 29.1 nM | EC50 (ZR-75-1 cells; Homo sapiens, ZR-75-1, 144 h): 6.97e-08 M | IC50 [3]: 24 nM

CCOc1ccccc1S(=O)(=O)NC(=O)c1cc2ccc(N(C)CCOC)cc2o1 [Example 215, N-(2-Ethoxybenzene-1-sulfonyl)-6-[(2-methoxyethyl)(methyl)amino]-1-benzofuran-2-carboxamide]
EC50 (MDA-MB-436 cells; [4]): > 20000 nM | IC50 [1]: 2660 nM | IC50 ([2]; Homo sapiens, MVLN): 11800 nM | EC50 (ZR-75-1 cells; Homo sapiens, ZR-75-1, 144 h): 1.01e-05 M

Cc1ccc2cccc(S(=O)(=O)NC(=O)c3cc4cc(Br)c(N(C)C)cc4o3)c2n1 [Example 216, 5-Bromo-6-(dimethylamino)-N-(2-methylquinoline-8-sulfonyl)-1-benzofuran-2-carboxamide]
EC50 (MDA-MB-436 cells; [4]): > 20000 nM | IC50 [1]: 2050 nM | IC50 ([2]; Homo sapiens, MVLN): > 20000 nM | EC50 (ZR-75-1 cells; Homo sapiens, ZR-75-1, 144 h): > 2e-05 M

CN(C)c1cc2oc(C(=O)NS(=O)(=O)c3ccccc3-c3ccccc3)cc2cc1Br [Example 217, N-([1,1′-biphenyl]-2-sulfonyl)-5-bromo-6-(dimethylamino)-1-benzofuran-2-carboxamide]
EC50 (MDA-MB-436 cells; [4]): > 20000 nM | IC50 [1]: 5540 nM | IC50 ([2]; Homo sapiens, MVLN): > 20000 nM | EC50 (ZR-75-1 cells; Homo sapiens, ZR-75-1, 144 h): 8.13e-06 M

CCOc1ccccc1S(=O)(=O)NC(=O)c1cc2cc(Br)c(N(C)C)cc2o1 [Example 218, 5-Bromo-6-(dimethylamino)-N-(2-ethoxybenzene-1-sulfonyl)-1-benzofuran-2-carboxamide]
EC50 (MDA-MB-436 cells; [4]): > 20000 nM | IC50 [1]: 4730 nM | IC50 ([2]; Homo sapiens, MVLN): 7900 nM | EC50 (ZR-75-1 cells; Homo sapiens, ZR-75-1, 144 h): 8.31e-06 M

CCCCOc1ccccc1S(=O)(=O)NC(=O)c1cc2ccc(N(C)CCOC)cc2o1 [Example 219, N-(2-butoxybenzene-1-sulfonyl)-6-[(2-methoxyethyl)(methyl)amino]-1-benzofuran-2-carboxamide]
EC50 (MDA-MB-436 cells; [4]): > 20000 nM | IC50 [1]: 1280 nM | IC50 ([2]; Homo sapiens, MVLN): 4060 nM | EC50 (ZR-75-1 cells; Homo sapiens, ZR-75-1, 144 h): 6.05e-06 M

CCNc1ccc2cc(C(=O)NS(=O)(=O)c3cccc4ccc(C)nc34)oc2c1 [Example 220, 6-(Ethylamino)-N-(2-methylquinoline-8-sulfonyl)-1-benzofuran-2-carboxamide]
EC50 (MDA-MB-436 cells; [4]): > 20000 nM | IC50 [1]: 188 nM | IC50 ([2]; Homo sapiens, MVLN): 716 nM | EC50 (ZR-75-1 cells; Homo sapiens, ZR-75-1, 144 h): 8.91e-07 M

Cc1ccc2cccc(S(=O)(=O)NC(=O)c3cc4c(F)cc(N(C)C)cc4o3)c2n1 [Example 227]
EC50 (MDA-MB-436 cells): > 14900 nM | IC50 [1]: 4 nM | IC50 [2]: 14 nM | EC50 (ZR-75-1 cells): 6.85e-08 M

From US12357603B2, “Acyl sulfonamides for treating cancer” (Bayer Aktiengesellschaft, priority 2019, dated 2025)
